Measurements published in patent US12070505B2, “Targeted peptide-drug conjugates” (priority 2021, dated 2024).
Like-named read-outs stand apart in the source and are kept apart here.

Experiments:
[1] = tested on: MDA-231WT cells; assay: LC50 by CCK-8 assay, wild-type cells; format: cell-based; conditions: MDA-231WT (wild type), FIG. 10: after 72 h
Description: (§1) Dox-resistant Cell Lines. Acquired resistance to Dox was induced in wild-type triple-negative breast cancer cell line MDA-MB-231 (MDA-231WT) as described before (Aliabadi, H. M.; et al. J. Control. Release 172:219-228, 2013, which is incorporated herein by reference). Briefly, MDA-231WT cells were exposed to Dox at an initial concentration of 0.05 μg/mL for one week or three consecutive expansions (whichever came later). […] Resistance induction was confirmed via calculation of LC50 following a sigmoidal effect model explained elsewhere (Bousoik, E.; et al. Front. Oncol. 9:1070, 2019, which is incorporated herein by reference) and determination of P-glycoprotein (P-gp) expression.
(§2) The cytotoxicity of the peptide-Dox conjugate in resistant triple-negative breast cancer and uterine sarcoma cell lines (MDA-231R, MDA-231WT, and MES-SA/MX2) was evaluated by a Cell Counting 8 (CCK8) KIT. The peptide-Dox conjugate was added to the cells in triplicate with different concentrations (0-40 μM). Cells were incubated at 37° C. and 5% CO2 for 24 h. After this incubation period, 10 μL of CCK8 reagent was added to each well, and plates were incubated at the same conditions for 2 h. The absorbance of each well was determined at 450 nm using the SpectraMAX M5 microplate reader. After subtracting the signal from blank wells that contain medium without cells in the plate with CCK-8 solution added, the results were normalized to cells treated with normal saline (considered as 100%)
(§3) Efficiency in Dox-Resistant Cells. In order to compare the cytotoxic effect of free and peptide-conjugated Dox in Dox-resistant cells, MDA-231WT (as a Dox-sensitive cell line as control) and MDA-231R and MES-SA/MX2 cells as Dox-resistant cells were exposed to a wide range of Dox (or Dox-equivalent for the peptide-conjugated drug) concentrations (0.05-40 μM). Cells were seeded in 96-well plates with approximately 50% confluency and were incubated for 24 h in 37° C. and 5% CO2. […] The cell viability was determined after this incubation period using the CCK-8 assay, as explained above. […]

[2] = tested on: MDA-231R cells; assay: LC50 by CCK-8 assay, Dox-resistant MDA-231R; format: cell-based; conditions: MDA-231R (Dox-resistant); FIG. 10: after 72 h
Description: as §1, §2, §3

[3] = tested on: MES-SA/MX2 cells; assay: LC50 by CCK-8 assay, Dox-resistant MES-SA/MX2; format: cell-based; conditions: FIG. 10: after 72 h
Description: as §1
The cytotoxicity of the peptide-Dox conjugate in resistant triple-negative breast cancer and uterine sarcoma cell lines (MDA-231R, MDA-231WT, and MES-SA/MX2) was evaluated by a Cell Counting 8 (CCK8) KIT. The peptide-Dox conjugate was added to the cells in triplicate with different concentrations (0-40 μM). […] After this incubation period, 10 μL of CCK8 reagent was added to each well, and plates were incubated at the same conditions for 2 h. The absorbance of each well was determined at 450 nm using the SpectraMAX M5 microplate reader. […]
Efficiency in Dox-Resistant Cells. […] The cell viability was determined after this incubation period using the CCK-8 assay, as explained above. […]

[4] = Stability of [R5K]W7A-Dox in fetal bovine serum (HPLC); format: in vitro ADME; conditions: 10% FBS, 37° C.
Description: Stability Studies. The stability of [R5K]W7A-Dox conjugate was evaluated using phosphate-buffered saline (PBS) and fetal bovine serum (FBS). FBS was purchased from Invitrogen and ATCC. FBS (20%) was incubated with [R5K]W7A-Dox (75 μL, 1 mM in water) at 37° C. followed by intermediate mixing. An aliquot of 75 μL of the mixture was taken out at different time intervals (5 min to 24 h) and diluted with water (75 μL). The mixture was analyzed by using analytical HPLC, detecting the wavelength of 490 nm. The area under the curve (AUC) was calculated and used to determine the percentage of released Dox and the remaining prodrug at a given time.

[5] = tested on: uterine sarcoma cells (MES-SA/MX2)
Description: (§4) In Vitro Cytotoxicity Assay of Peptide-Drug Conjugates. […] In brief, CCRF-CEM cells were seeded at 50,000 cells in 0.1 mL per well in 98-well plates. In the case of other cell lines, the cells were seeded at 5,000 cells (0.1 mL per well in 96-well plates). […] Dox (5 μM) was used as a positive control, while water and cell culture medium were used as negative controls. The compounds were dissolved in water; water was used as a negative control to normalize the data. After the incubation period, MTS reagent (20 μL) was added to each well. The incubation was continued for 2 h. Cell viability was then determined by determination of the fluorescence intensity at 490 nm using a SpectraMax M2 microplate spectrophotometer. The percentage of cell viability was then calculated using the following equation: [(OD value of cells treated with the compound)−(OD value of culture medium)]/[(OD value of control cells)−(OD value of culture medium)]×100% (FIGS. 6-9).

[6] = tested on: gastric adenocarcinoma cells (AGS); assay: Cytotoxicity, MTS cell viability assay, AGS
Description: as §4

[7] = Cytotoxicity, MTS assay, normal kidney cells; conditions: pig, LLC-PK1 kidney cells
Description: (§5) In Vitro Cytotoxicity Assay of Peptide-Drug Conjugates. The cytotoxicity of the compounds was determined by using human leukemia cell line (CCRF-CEM), human ovarian adenocarcinoma cells (SKOV-3) cells, kidney cell line (LLC-PK1), gastric adenocarcinoma cells (AGS), and heart/myocardium cells (H9C2) to evaluate the toxicity of the generated peptides according to a previously reported procedure (Rahman, A.; et al. Proc. Am. Assoc. Cancer Res. 26:2295-2299, 1985, which is incorporated herein by reference). In brief, CCRF-CEM cells were seeded at 50,000 cells in 0.1 mL per well in 98-well plates. In the case of other cell lines, the cells were seeded at 5,000 cells (0.1 mL per well in 96-well plates). The cells were seeded in medium (RPMI-1640 containing FBS (10%)), 24 h prior to the experiment. The compounds at different concentrations (10-50 μM) were added to each well in triplicate and incubated for 24 and 72 h at 37° C. in a humidified atmosphere of 5% CO2. Dox (5 μM) was used as a positive control, while water and cell culture medium were used as negative controls. The compounds were dissolved in water; water was used as a negative control to normalize the data. After the incubation period, MTS reagent (20 μL) was added to each well. The incubation was continued for 2 h. Cell viability was then determined by determination of the fluorescence intensity at 490 nm using a SpectraMax M2 microplate spectrophotometer.

[8] = tested on: LLC-PK1 kidney cells; assay: Cytotoxicity, MTS assay, normal kidney cells
Description: as §5

[9] = tested on: CCRF-CEM cells; assay: Cytotoxicity, MTS cell viability assay, CCRF-CEM
Description: as §4

[10] = tested on: SK-OV-3 cells; assay: Cytotoxicity, MTS cell viability assay, SK-OV-3 (Example 1)
Description: as §4

[11] = Cytotoxicity, MTS assay, normal heart muscle cells (Example 1); conditions: rat, H9C2 heart/myocardium cells
Description: as §5

[12] = tested on: H9C2 cells; assay: as above
Description: as §5

`COc1cccc2c1C(=O)c1c(O)c3c(c(O)c1C2=O)C[C@@](O)(C(=O)COC(=O)CCCC(=O)NCCC(=O)N[C@@H](Cc1c[nH]c2ccccc12)C(=O)N[C@@H](Cc1c[nH]c2ccccc12)C(=O)N[C@@H](Cc1c[nH]c2ccccc12)C(=O)N[C@@H](Cc1c[nH]c2ccccc12)C(=O)N[C@@H](Cc1c[nH]c2ccccc12)C(=O)N[C@@H](Cc1c[nH]c2ccccc12)C(=O)N[C@@H](Cc1c[nH]c2ccccc12)C(=O)NCCCC[C@@H]1NC(=O)[C@H](CCCNC(=N)N)NC(=O)[C@H](CCCNC(=N)N)NC(=O)[C@H](CCCNC(=N)N)NC(=O)[C@H](CCCNC(=N)N)NC(=O)[C@H](CCCNC(=N)N)NC1=O)C[C@@H]3O[C@H]1C[C@H](N)[C@H](O)[C@H](C)O1` [[R5K]W7A-Dox] showed a CC50 [1] of 0.56 µM, a CC50 ([1]; listed as Conjugated Dox) of 0.66 µM and a CC50 [2] of 2.3 µM. The CC50 [3] was 4.3 µM, the Dox released ([4]; after 4 h) was 55% and the remaining at 24 h ([4]; bovine, 10% fetal bovine serum, after 24 h, read-out: peptide-Dox conjugate remained intact) was 25%. For the same molecule, the “Cell Viability (%) after 72 h” value ([5]; 5 μM, listed as [R5K]W7-Dox) was 97 ± 2%, the “Cell Viability (%) after 72 h” value ([5]; 5 μM, listed as [R5K]W7Dox) was 113 ± 1% and the “Cell Viability (%) after 72 h” value ([5]; 10 μM) was 89 ± 2%. The “Cell Viability (%) after 72 h” value ([5]; 25 μM) was 23 ± 4%, the “reduction of cell viability” value ([5]; 25 μM, 72 h) was ~80% and the cytotoxicity ([5]; 5 and 10 μM, 72 h) was 0-10%. For the same molecule, the “Cell Viability (%) after 24 h” value ([6]; 5 μM) was 95 ± 0%, the “Cell Viability (%) after 72 h” value ([6]; 5 μM) was 27 ± 6% and the “reduction of cell survival/viability” value ([6]; 5 μM, 72 h) was 73%. For the same molecule, the “Cell Viability (%) after 24 h” value ([6]; 10 μM) was 104 ± 5%, the “Cell Viability (%) after 72 h” value ([6]; 10 μM) was 13 ± 3% and the “Cell Viability (%) after 24 h” value ([6]; 25 μM) was 71 ± 0%. The “Cell Viability (%) after 72 h” value ([6]; 25 μM) was 10 ± 1%, the “Cell Viability (%) after 24 h” value ([6]; 50 μM) was 32 ± 1% and the “Cell Viability (%) after 72 h” value ([6]; 50 μM) was 11 ± 1%. For the same molecule, the “cytotoxicity” value ([6]; 5 and 10 μM, 24 h) was “not significantly cytotoxic”, the “reduction of cell viability” value ([6]; different concentrations, 72 h) was 73-90% and the viability at 24 h, 5 µM [7] was 88%. It also gave a viability at 24 h, 25 µM [7] of 42%, a viability at 24 h, 50 µM [7] of 33 ± 1% and a viability at 72 h, 5 µM [7] of 93 ± 6%. For the same molecule, the viability at 72 h, 10 µM [7] was 95 ± 3%, the viability at 72 h, 25 µM [7] was 94 ± 1% and the viability at 72 h, 50 µM [7] was 33 ± 1%. For the same molecule, the “cytotoxicity to normal kidney cells” value ([8]; LLC-PK1, 5-10 μM) was 5-7%, the “cytotoxicity” value ([8]; LLC-PK1, as high as 10 μM, 24 h and 72 h) was “not cytotoxic” and the “Cell Viability (%) after 24 h” value ([8]; normal kidney LLC-PK1, 5 μM) was 88 ± 0%. For the same molecule, the “Cell Viability (%) after 72 h” value ([8]; normal kidney LLC-PK1, 5 μM) was 93 ± 6%, the “Cell Viability (%) after 72 h” value ([8]; normal kidney LLC-PK1, 10 μM) was 95 ± 3% and the “Cell Viability (%) after 24 h” value ([9]; 5 μM) was 74 ± 0%. For the same molecule, the “Cell Viability (%) after 72 h” value ([9]; 5 μM) was 16 ± 6%, the “reduction of cell survival/viability” value ([9]; 5 μM, 72 h) was 84% and the “Cell Viability (%) after 24 h” value ([9]; 10 μM) was 68 ± 0%. The “Cell Viability (%) after 72 h” value ([9]; 10 μM) was 13 ± 3%, the “Cell Viability (%) after 24 h” value ([9]; 25 μM) was 36 ± 0% and the “Cell Viability (%) after 72 h” value ([9]; 25 μM) was 15 ± 1%. The “reduction of cell viability” value ([9]; 25 μM, 24 h) was 64%, the cytotoxicity ([9]; at 5, 10, and 25 μM, 72 h) was 84-87% and the “Cell Viability (%) after 24 h” value ([10]; 5 μM) was 87 ± 6%. The “Cell Viability (%) after 72 h” value ([10]; 5 μM) was 71 ± 3%, the “reduction of cell survival/viability” value ([10]; 5 μM, 24 h) was 19% and the “reduction of cell survival/viability” value ([10]; 5 μM, 72 h) was 29%. The “Cell Viability (%) after 24 h” value ([10]; 10 μM) was 87 ± 0%, the “Cell Viability (%) after 72 h” value ([10]; 10 μM) was 61 ± 6% and the “reduction of cell viability” value ([10]; 10 μM, 72 h) was 39%. For the same molecule, the “Cell Viability (%) after 24 h” value ([10]; 25 μM) was 76 ± 1%, the “Cell Viability (%) after 72 h” value ([10]; 25 μM) was 52 ± 3% and the “reduction of cell viability / cytotoxicity” value ([10]; 25 μM, 72 h) was 48%. For the same molecule, the viability at 24 h, 5 µM [11] was 100 ± 2%, the viability at 24 h, 10 µM [11] was 101% and the viability at 24 h, 25 µM [11] was 68%. For the same molecule, the viability at 72 h, 10 µM [11] was 105 ± 3%, the viability at 72 h, 25 µM [11] was 37 ± 1% and the viability at 96 h, 5 µM [11] was 115 ± 1%. For the same molecule, the viability at 96 h, 10 µM [11] was 91%, the viability at 96 h, 25 µM [11] was 39% and the “cytotoxicity to heart cells” value ([12]; H9C2, 5-10 μM) was < 9%. For the same molecule, the “toxicity” value ([12]; H9C2, 5-10 μM, 24 h, 72 h, and 96 h) was “did not show any significant toxicity”, the “Cell Viability (%) after 24 h” value ([12]; normal heart H9C2, 5 μM) was 100 ± 2% and the “Cell Viability (%) after 24 h” value ([12]; normal heart H9C2, 10 μM) was 101 ± 0%. For the same molecule, the “Cell Viability (%) after 72 h” value ([12]; normal heart H9C2, 10 μM) was 105 ± 3%.
